The values below come from article PMC6151782, “Synthesis, In Vitro α-Glucosidase Inhibitory Activity and Molecular Docking Studies of Novel Benzothiazole-Triazole Derivatives” (Molecules : A Journal of Synthetic Chemistry and Natural …, 2017).

Molecules are shown by their SMILES.

Usually IC50 stands for the point on the concentration scale where inhibition reaches its midpoint. Read a high IC50 as weaker potency. Broadly, the melting point is the temperature, or range, at which the solid turns liquid.

Data set [1] has as its target T1, Baker’s yeast α-glucosidase enzyme (Saccharomyces cerevisiae, UniProt P53341).
T1 construct: purchased
Kind of data set: biochemical. An excerpt:
The sample solution was replaced by DMSO as a control. Acarbose was used as a positive control.

T1 sequence (P53341 whole entry): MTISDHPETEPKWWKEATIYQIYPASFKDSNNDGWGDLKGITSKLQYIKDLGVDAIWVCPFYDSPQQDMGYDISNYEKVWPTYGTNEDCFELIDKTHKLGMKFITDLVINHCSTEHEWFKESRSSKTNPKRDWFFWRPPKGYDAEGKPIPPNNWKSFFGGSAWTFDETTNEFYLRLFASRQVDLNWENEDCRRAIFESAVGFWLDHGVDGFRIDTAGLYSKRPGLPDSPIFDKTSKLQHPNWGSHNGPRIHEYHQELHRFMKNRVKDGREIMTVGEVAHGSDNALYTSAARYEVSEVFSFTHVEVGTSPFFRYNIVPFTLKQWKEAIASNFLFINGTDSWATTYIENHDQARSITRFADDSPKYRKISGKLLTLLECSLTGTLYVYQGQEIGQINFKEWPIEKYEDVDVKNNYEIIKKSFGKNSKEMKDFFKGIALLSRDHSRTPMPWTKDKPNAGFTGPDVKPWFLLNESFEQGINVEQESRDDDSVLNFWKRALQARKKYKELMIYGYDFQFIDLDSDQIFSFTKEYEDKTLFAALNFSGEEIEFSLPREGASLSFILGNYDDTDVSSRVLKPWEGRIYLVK

The compound `Brc1ccc(Cn2cc(CSc3nc4ccccc4s3)nn2)cc1` [Compound 6a, 2-(((1-(4-Bromobenzyl)-1H-1,2,3-triazol-4-yl)methyl)thio)benzo[d]thiazole] returned a melting point of 112 to 114 °C. Half-maximal inhibition in data set [1] (IC50) was put at 28.7 µM.
As for `Clc1ccccc1Cn1cc(CSc2nc3ccccc3s2)nn1` [Compound 6b, 2-(((1-(2-Chlorobenzyl)-1H-1,2,3-triazol-4-yl)methyl)thio)benzo[d]thiazole], the melting point lay in the range of 110 to 111 °C. The IC50 in data set [1] was > 100 µM.
With `Brc1ccccc1Cn1cc(CSc2nc3ccccc3s2)nn1` [Compound 6c, 2-(((1-(2-Bromobenzyl)-1H-1,2,3-triazol-4-yl)methyl)thio)benzo[d]thiazole], the melting point is 104 to 106 °C. For the same compound, in data set [1], half-maximal inhibition (IC50) required 37.4 µM.
Consider `Fc1cccc(Cn2cc(CSc3nc4ccccc4s3)nn2)c1` [Compound 6d, 2-(((1-(3-Fluorobenzyl)-1H-1,2,3-triazol-4-yl)methyl)thio)benzo[d]thiazole], for which the melting point was 112 to 114 °C. Further, the IC50 in data set [1] is 61.1 µM.
Taken in the same sequence, the figures for `Clc1ccc(Cn2cc(CSc3nc4ccccc4s3)nn2)cc1` [Compound 6e, 2-(((1-(4-Chlorobenzyl)-1H-1,2,3-triazol-4-yl)methyl)thio)benzo[d]thiazole] were 119 to 120 °C and 27.4 µM.
The compound `Fc1ccccc1Cn1cc(CSc2nc3ccccc3s2)nn1` [Compound 6f, 2-(((1-(2-Fluorobenzyl)-1H-1,2,3-triazol-4-yl)methyl)thio)benzo[d]thiazole] gave a melting point of 86 to 88 °C. In data set [1], the IC50 was > 100 µM.
`c1ccc(Cn2cc(CSc3nc4ccccc4s3)nn2)cc1` [Compound 6g, 2-(((1-Benzyl-1H-1,2,3-triazol-4-yl)methyl)thio)benzo[d]thiazole] registered a melting point of 109 to 110 °C. Besides, the IC50 in data set [1] was > 100 µM.
In turn, `CC(C)(C)c1ccc(Cn2cc(CSc3nc4ccccc4s3)nn2)cc1` [Compound 6i, 2-(((1-(4-(Tert-butyl)benzyl)-1H-1,2,3-triazol-4-yl)methyl)thio)benzo[d]thiazole] had a melting point of 77 to 78 °C. Further, the IC50 in data set [1] stood at 29.4 µM.
In turn, `Fc1ccccc1Cn1cc(CSc2nc3cc(Cl)ccc3s2)nn1` [Compound 6j, 5-Chloro-2-(((1-(2-fluorobenzyl)-1H-1,2,3-triazol-4-yl)methyl)thio)benzo[d]thiazole] yielded a melting point of 115 to 117 °C. For the same compound, half-maximal inhibition in data set [1] (IC50) required 45.9 µM.
For `Clc1ccc2sc(SCc3cn(Cc4ccccc4Br)nn3)nc2c1` [Compound 6k, 2-(((1-(2-Bromobenzyl)-1H-1,2,3-triazol-4-yl)methyl)thio)-5-chlorobenzo[d]thiazole], in that order: 119 to 120 °C and 48.4 µM.
Turning to `Clc1ccc2sc(SCc3cn(Cc4ccccc4Cl)nn3)nc2c1` [Compound 6l, 5-Chloro-2-(((1-(2-chlorobenzyl)-1H-1,2,3-triazol-4-yl)methyl)thio)benzo[d]thiazole], the melting point is 128 to 130 °C. The compound also registered an IC50 in data set [1] of 33.6 µM.
`Clc1ccc(Cn2cc(CSc3nc4cc(Cl)ccc4s3)nn2)cc1` [Compound 6m, 5-Chloro-2-(((1-(4-chlorobenzyl)-1H-1,2,3-triazol-4-yl)methyl)thio)benzo[d]thiazole] returned a melting point of 111 to 112 °C. In data set [1], this compound had an IC50 of 28.2 µM.
`Clc1ccc2sc(SCc3cn(Cc4ccc(Br)cc4)nn3)nc2c1` [Compound 6n, 2-(((1-(4-Bromobenzyl)-1H-1,2,3-triazol-4-yl)methyl)thio)-5-chlorobenzo[d]thiazole] displayed a melting point of 114 to 116 °C. In data set [1], this compound yielded an IC50 of 28 µM.
`Clc1cc(Cl)cc(Cn2cc(CSc3nc4cc(Cl)ccc4s3)nn2)c1` [Compound 6o, 5-Chloro-2-(((1-(3,5-dichlorobenzyl)-1H-1,2,3-triazol-4-yl)methyl)thio)benzo[d]thiazole] came in with a melting point of 124 to 126 °C. In data set [1], this compound showed an IC50 of 22.3 µM.
`Fc1cccc(Cn2cc(CSc3nc4cc(Cl)ccc4s3)nn2)c1` [Compound 6p, 5-Chloro-2-(((1-(3-fluorobenzyl)-1H-1,2,3-triazol-4-yl)methyl)thio)benzo[d]thiazole]: the melting point fell in the range of 140 to 141 °C. Also, the concentration for half-maximal inhibition (IC50) in data set [1] was found to be 38.6 µM.
Taken in the same sequence, the figures for `Fc1ccc(Cn2cc(CSc3nc4cc(Cl)ccc4s3)nn2)cc1` [Compound 6q, 5-Chloro-2-(((1-(4-fluorobenzyl)-1H-1,2,3-triazol-4-yl)methyl)thio)benzo[d]thiazole] were 108 to 109 °C and 53.1 µM.
For `Clc1ccc2sc(SCc3cn(Cc4ccccc4)nn3)nc2c1` [Compound 6r, 2-(((1-Benzyl-1H-1,2,3-triazol-4-yl)methyl)thio)-5-chlorobenzo[d]thiazole], the melting point lay within 142 to 144 °C. Moreover, in data set [1], the IC50 came out at 44.4 µM.
